The target in experiment [1] is IDH1R132C (Homo sapiens (Human), UniProt O75874, R132C). Put plainly: Inhibitory activity against IDH1R132C enzyme (NADPH detection, WST-8). The following applies: 10 nM, residual NADPH detected with WST-8, read-out: Test Example 1 IDH1 R132C IC50. The format is biochemical. On the technique in general: Formazan colour is commonly taken as a measure of viable cells.
Experiment [2] relates to HT-1080 cells expressing IDH1R132C. As to the kind of experiment: 2-HG production inhibitory activity using HT1080 cell. The format is cell-based, human. The following applies: Homo sapiens, HT-1080; 2-HG production, HT1080 cells; read-out: Test Example 3 IC50. As to the method: Then, 100 μL of growth medium B was added to each well, further 25 μL of a solution of each compound diluted to a predetermined concentration with growth medium B was added to each well, and the cells were incubated at 37° C. for 2 days under 5% CO2. […] Then, 150 μL of ultrapure water was further added to each well, and the mixture was stirred by pipetting and stored at −20° C.
The preserved solutions were thawed at room temperature.

In experiment [3] the test system is HT1080 xenografted mice (IDH1R132C). Put plainly: 2-HG production inhibitory activity using HT1080 xenografted mice. Particulars: Mus musculus, HT-1080, po, 6 h, 2-HG production, HT1080 xenografted mice; read-out: Test Example 5 Ratio (%). The format is in vivo, mouse. The method in brief: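 Mice bearing HT1080 tumors received 75 mg/kg compound by oral gavage twice a day, three doses in total, at 10 mL/kg; vehicle-dosed mice were negative controls. Tumors were collected 6 h after the final dose, frozen, homogenized in methanol and centrifuged, and 2-HG was measured in the extracts.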

Each structure is given as a SMILES string. pIC50: −log10 of the molar value.

Chain of IDH1R132C (O75874 whole entry R132C): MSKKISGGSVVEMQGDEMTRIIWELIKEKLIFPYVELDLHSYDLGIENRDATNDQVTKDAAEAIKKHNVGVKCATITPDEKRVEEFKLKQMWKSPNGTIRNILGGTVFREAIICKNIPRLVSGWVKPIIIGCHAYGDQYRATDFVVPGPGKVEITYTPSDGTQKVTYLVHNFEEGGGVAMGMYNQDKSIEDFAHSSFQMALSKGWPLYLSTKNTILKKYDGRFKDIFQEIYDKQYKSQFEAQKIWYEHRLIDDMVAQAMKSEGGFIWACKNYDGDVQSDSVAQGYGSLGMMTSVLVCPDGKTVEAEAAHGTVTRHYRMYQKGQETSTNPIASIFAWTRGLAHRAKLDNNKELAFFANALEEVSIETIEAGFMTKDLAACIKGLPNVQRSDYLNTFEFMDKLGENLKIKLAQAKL

One may read the pIC50 as −log10 of the IC50, conventionally taken in molar units. With `C=CC(=O)N1CCC(c2onc(-c3c(C)cc(C)cc3C)c2C(=O)n2cc(C)c3c(/C=C/C(=O)O)cccc32)CC1` [Example 114], the pIC50 is 7.09 in experiment [1] and 8.52 in experiment [2]. Further, the response vs control in vivo at 75 mg/kg in experiment [3] was found to be 12%.
The corresponding values for `C=CC(=O)N1CCC(c2onc(-c3c(Cl)cc(Cl)cc3Cl)c2C(=O)n2cc(C)c3c(CCC(=O)O)cccc32)CC1` [Example 115] are 6.52, 7.49 and 12%.
For `C=CC(=O)N1CCC(c2onc(-c3c(Cl)cc(Cl)cc3Cl)c2C(=O)n2ccc3c(/C=C(\C)C(=O)O)cccc32)CC1` [Example 116] the same measures were 6.33, 7.38 and 57%.
For `C=CC(=O)N1CCC(OC)(c2onc(-c3c(Cl)cc(Cl)cc3Cl)c2C(=O)n2cc(C)c3c(/C=C/C(=O)O)cccc32)CC1` [Example 117], the values for the pIC50 in experiment [1] and in experiment [2] were 6.93 and 8.70, respectively. The response vs control in vivo at 75 mg/kg in experiment [3] was found to be 10%.
For `C=CC(=O)N1CCC(c2onc(-c3c(Cl)cc(Cl)cc3Cl)c2C(=O)n2ncc3c(/C=C/C(=O)O)cccc32)CC1` [Example 118] the same measures were 6.20, 7.01 and 87%.
For `C/C=C/C(=O)N1CCC(c2onc(-c3c(Cl)cc(Cl)cc3Cl)c2C(=O)n2cc(C)c3c(/C=C/C(=O)O)cccc32)CC1` [Example 119] the same measures were 6.72, 7.52 and 12%.
On to `C=CC(=O)N1CCC(COC)(c2onc(-c3c(Cl)cc(Cl)cc3Cl)c2C(=O)n2ccc3c(/C=C/C(=O)O)cccc32)CC1` [Example 120], for which the pIC50 in experiment [1] is 6.45; in experiment [2] it was 7.29. Further, in experiment [3], the response vs control in vivo at 75 mg/kg was 31%.
Regarding `C=CC(=O)N1CCC(c2onc(-c3cc(F)c(Cl)cc3Cl)c2C(=O)n2cc(C)c3c(/C=C/C(=O)O)cccc32)CC1` [Example 121], the pIC50 in experiment [1] was 6.96; in experiment [2] it was 8.10. Further, in experiment [3], the response vs control in vivo at 75 mg/kg came to 8%.
As for `C=CC(=O)N1CCC(c2onc(-c3c(C)cc(Cl)cc3C)c2C(=O)n2cc(C)c3c(/C=C/C(=O)O)cccc32)CC1` [Example 122], the values for the pIC50 in experiment [1] and in experiment [2] were 7.03 and 8.22, respectively. Also, in experiment [3], the response vs control in vivo at 75 mg/kg worked out at 29%.
As for `C=CC(=O)N1CCC(c2onc(-c3c(Cl)cc(Cl)cc3Cl)c2C(=O)n2cc3c4c(cccc42)C(CC(=O)O)CC3)CC1` (stereo not drawn) [Example 125], the pIC50 in experiment [1] is 6.34; in experiment [2], 7.11. The response vs control in vivo at 75 mg/kg in experiment [3] is 72%.
The corresponding values for `C=CC(=O)N1CCC(c2onc(-c3cc(F)c(Cl)cc3Cl)c2C(=O)n2cc3c4c(cccc42)/C(=C/C(=O)O)CC3)CC1` [Example 128] are 7.04, 8.52 and 1%.
Turning to `C=CC(=O)N1CCC(c2onc(-c3ccc(Cl)c(F)c3Cl)c2C(=O)n2cc3c4c(cccc42)/C(=C/C(=O)O)CC3)CC1` [Example 130, (2E)-[1-{[5-(1-Acryloylpiperidin-4-yl)-3-(2,4-dichloro-3-fluorophenyl)-1,2-oxazol-4-yl]carbonyl}-3,4-dihydrobenzo[cd]indol-5(1H)-ylidene]ethanoic acid], the figures for the pIC50 in experiment [1] and in experiment [2] were 6.84 and 7.85, respectively. The response vs control in vivo at 75 mg/kg in experiment [3] stood at 5%.
The corresponding values for `C=CC(=O)N1CCC(c2onc(-c3ccc(Cl)cc3Cl)c2C(=O)n2cc3c4c(cccc42)/C(=C/C(=O)O)CC3)CC1` [Example 131, (2E)-[1-{[5-(1-Acryloylpiperidin-4-yl)-3-(2,4-dichlorophenyl)-1,2-oxazol-4-yl]carbonyl}-3,4-dihydrobenzo[cd]indol-5(1H)-ylidene]ethanoic acid] are 6.88, 8.40 and 3%.
For `C=CC(=O)N1CCN(c2onc(-c3c(Cl)cccc3Cl)c2C(=O)n2ccc3c(/C=C/C(=O)O)cccc32)[C@H](C)C1` [Example 141, (2E)-3-[1-({5-[(2R)-4-Acryloyl-2-methylpiperazin-1-yl]-3-(2,6-dichlorophenyl)-1,2-oxazol-4-yl}carbonyl)-1H-indol-4-yl]prop-2-enoic acid] the same measures were 6.86, 6.72 and 36%.
With `C=CC(=O)N1CCN(c2onc(-c3c(Cl)cccc3Cl)c2C(=O)n2ccc3c(/C=C/C(=O)O)cccc32)CC1` [Example 142, (2E)-3-(1-{[5-(4-Acryloylpiperazin-1-yl)-3-(2,6-dichlorophenyl)-1,2-oxazol-4-yl]carbonyl}-1H-indol-4-yl)prop-2-enoic acid], the values for the pIC50 in experiment [1] and in experiment [2] were 6.91 and 6.87, respectively. Also, the response vs control in vivo at 75 mg/kg in experiment [3] is 56%.
The corresponding values for `C=CC(=O)N1CCN(c2onc(-c3c(Cl)cc(Cl)cc3Cl)c2C(=O)n2ccc3c(/C=C/C(=O)O)cccc32)CC1` [Example 143, (2E)-3-(1-{[5-(4-Acryloylpiperazin-1-yl)-3-(2,4,6-trichlorophenyl)-1,2-oxazol-4-yl]carbonyl}-1H-indol-4-yl)prop-2-enoic acid] are 6.82, 6.83 and 60%.
For `C=CC(=O)N1C[C@@H](C)N(c2onc(-c3c(Cl)cccc3Cl)c2C(=O)n2ccc3c(/C=C/C(=O)O)cccc32)[C@@H](C)C1` [Example 144, (2E)-3-(1-{[5-(4-Acryloyl-cis-2,6-dimethylpiperazin-1-yl)-3-(2,6-dichlorophenyl)-1,2-oxazol-4-yl]carbonyl}-1H-indol-4-yl)prop-2-enoic acid] the same measures were 6.82, 6.97 and 34%.
For `C=CC(=O)N1CCN(c2onc(-c3c(Cl)cccc3Cl)c2C(=O)n2ccc3c(/C=C/C(=O)O)cccc32)[C@@H](C)C1` [Example 145, (2E)-3-[1-({5-[(2S)-4-Acryloyl-2-methylpiperazin-1-yl]-3-(2,6-dichlorophenyl)-1,2-oxazol-4-yl}carbonyl)-1H-indol-4-yl]prop-2-enoic acid] the same measures were 6.67, 6.09 and 56%.
For `C=CC(=O)N1CCN(c2onc(-c3c(Cl)cccc3Cl)c2C(=O)n2ccc3c(/C=C/C(=O)O)cccc32)C2(CC2)C1` [Example 147, (2E)-3-(1-{[5-[7-Acryloyl-4,7-diazaspiro[2.5]oct-4-yl]-3-(2,6-dichlorophenyl)-1,2-oxazol-4-yl]carbonyl}-1H-indol-4-yl)prop-2-enoic acid], the pIC50 in experiment [1] was 7.11; in experiment [2], 6.66. Besides, the response vs control in vivo at 75 mg/kg in experiment [3] was 18%.
For `C=CC(=O)N1CCN(c2onc(-c3c(Cl)cc(Cl)cc3Cl)c2C(=O)n2ccc3c(/C=C/C(=O)O)cccc32)C[C@H]1C` [Example 148, (2E)-3-[1-({5-[(3R)-4-Acryloyl-3-methylpiperazin-1-yl]3-(2,4,6-trichlorophenyl)-1,2-oxazol-4-yl}carbonyl)-1H-indol-4-yl]prop-2-enoic acid], the pIC50 is 6.65 in experiment [1] and 6.94 in experiment [2]. In addition, the response vs control in vivo at 75 mg/kg in experiment [3] stood at 50%.

The values above are taken from US10040791B2, “Isoxazole derivative as mutant isocitrate dehydrogenase 1 inhibitor” (Daiichi Sankyo Company, Limited, priority 2014, dated 2018).
